Reference: patent US11077205B2, “Synthetic compound for improving efficiency of transfection” (Klinikum der Universität München, priority 2016, dated 2021)
The star is where a group is joined. ξ: configuration not given here. Lipoyl(6ξ) = O=C(CCCCC1CCSS1)*

Columns and labels:
airway epithelium cells = experiment: In vitro transfection study on cultured airway epithelium cells (luciferase, RLU/mg cellular protein); format: cell-based; details: ternary complexes formed by P704, a nucleic acid and the compound
Protocol: In vitro transfection: For the luciferase assay, cells were seeded at a density of 1.8×10^4/well (BEAS-2B) or 3.5×10^4/well (16HBE) in 96-well plates 24 h before transfection to reach 60-80% confluence. Following removal of growth medium, cells were rinsed with DPBS (Gibco, Germany). 170 μl of fresh serum-free OptiMEM (Gibco, Germany) were added per well, and subsequently 30 μl of IVT-mRNA or pDNA containing complexes prepared, as described above, corresponding to 400 ng IVT-mRNA or pDNA per well, were added in replicates of five. After 4 h of incubation at 37° C. in a humidified 5% CO2-containing atmosphere, the transfection medium was replaced with culture medium supplemented with 10% FBS and 1% (v/v) penicillin/streptomycin. […] assayed with Metridia luciferase substrate (coelenterazine, Invivogen, France) after 24 h using a FLUOstar microplate reader (BMG Labtech, […]). In all cases each sample was measured on at least two other occasions to ensure the reproducibility of the data.

16HBE cells [1] = experiment: Cell endocytosis mechanism assay, uptake of Fluo-pDNA containing P704 based ternary complexes (flow cytometry); design: species or system human; details: for endocytosis of ternary complexes in presence of free compound and its fragments (competition): FIG. 11c/11d
Protocol: In order to study the cellular uptake different binary and ternary complexes, 16 HBE cells (7×10^5/well) were seeded in 6-well plate 24 h before investigation. P704 based binary complexes were prepared by mixing P704 at the concentration of 63 (w/w) with Fluo-pDNA in Tyrode's solution. Compound 9 based binary complexes were prepared by mixing compound 9 at the N/P ratio of 5 with Fluo-pDNA in NF-water. P704 based ternary complexes consisted of P704 at the concentration of 63 (w/w), compound 0 (DL) or compound 9 at optimum N/P ratio and Fluo-pDNA. P304 based ternary complexes consisted of P304 at the concentration of 2000 (w/w), compound 8 at N/P ratio of 20 and Fluo-pDNA. P90R4 based ternary complexes consisted of P90R4 at the concentration of 1600 (w/w), compound 8 at N/P ratio of 15 and Fluo-pDNA. The amount of Fluo-pDNA in each sample was 4 μg/well. Naked Fluo-pDNA was served as a negative control. After 4 h incubation, medium was removed. The cells were harvested and rinsed with cold PBS for three times followed immediately by flow cytometry analysis. The amount of 10 000 live cells was collected for each sample.
With the purpose of identifying possible internalization mechanisms of ternary complexes by human bronchial epithelium cells, 16 HBE cells were pre-incubated at different temperatures or treated with specific agents at 37° C. for 1 h, then incubated with P704 based ternary complexes in the same conditions as described above. (I, II) To examine the effects of chlorpromazine and filipin, which were the clathrin- and caveolae-dependent endocytosis inhibitors, 10 μg/ml chlorpromazine or 1 μg/ml filipin in OptiMEM were used. (III) To study the effect of amiloride (macropinocytosis inhibitor), 0.3 mg/ml amiloride was adopted. (IV) To investigate the effect of protamine, an adsorptive-mediated endocytosis inhibitor, 1 mM protamine sulfate was added. […]

16HBE cells [2] = experiment: In vitro transfection, Metridia luciferase assay in 16HBE cells; format: cell-based, human; details: day 2
[3] = Size and zeta potential measurements (Zetasizer Nano ZS) of P704 based binary and ternary complexes; format: physicochemical
Protocol: Size and zeta potential measurements: Particle size and zeta potential measurements of P704 based binary and ternary complexes were measured using a Zetasizer Nano ZS (Malvern Instruments Ltd.) at 25° C. Binary complexes were prepared in Tyrode's solution at a weight/weight ratio (P704/IVT-mRNA or pDNA) of 63:1. Ternary complexes were prepared in NF-water with P704 at a weight/weight ratio of 63:1 and the compound at N/P ratio of 10:1 (compound 0 (DL) and compound 8) or 5:1 (compound 4 and compound 9) using methods described above. The IVT-mRNA and pDNA concentration in both binary and ternary complexes was fixed at 10 μg/ml.
The results of physical characterizations (size and zeta potential) of P704 based binary and ternary complexes containing IVT-mRNA or pDNA are given in the following table: […]

Substance	transfection efficiencies of ternary complexes with compound 0 (DL) versus compound 0 (R) (airway epithelium cells)	endocytosis of ternary complexes in presence of free compound and its fragments (competition) (16HBE cells [1])	pDNA expression compared with compound 3 containing ternary complex (16HBE cells [2])	cell uptake of ternary complexes at 4° C. and in the presence of NaN3 (16HBE cells [1]; FIG. 11a)	particle size of ternary complex compared with other counterparts [3]
NH2-VKRKKKPKKRRRRKKWK(DL-lipoic acid)-CONH2 (H-VKRKKKPKKRRRRKKWK(Lipoyl(6ξ))-NH2; SMILES CC(C)[C@H](N)C(=O)N[C@@H](CCCCN)C(=O)N[C@@H](CCCNC(=N)N)C(=O)N[C@@H](CCCCN)C(=O)N[C@@H](CCCCN)C(=O)N[C@@H](CCCCN)C(=O)N1CCC[C@H]1C(=O)N[C@@H](CCCCN)C(=O)N[C@@H](CCCCN)C(=O)N[C@@H](CCCNC(=N)N)C(=O)N[C@@H](CCCNC(=N)N)C(=O)N[C@@H](CCCNC(=N)N)C(=O)N[C@@H](CCCNC(=N)N)C(=O)N[C@@H](CCCCN)C(=O)N[C@@H](CCCCN)C(=O)N[C@@H](Cc1c[nH]c2ccccc12)C(=O)N[C@@H](CCCCNC(=O)CCCCC1CCSS1)C(N)=O) [compound 0 (DL)]	similar	cannot be inhibited by free compound 0 (DL) and its fragment sequence	similar	–	–
KETWWETWWTEWWTEW-KKKKRRRRRKKKK-GACSERSMNFCG (KETWWETWWTEWWTEWKKKKRRRRRKKKKGACSERSMNFCG) [compound 9]	–	inhibited by free compound 9 and free peptide GACSERSMNFCG	–	Energy-dependent cell uptake	slightly smaller
